# From ChEMBL document CHEMBL5113446, “Design, synthesis and biological evaluation of novel aminopropylcarboxamide derivatives as sigma ligands” (Bioorg Med Chem Lett, 2022)
# Tests used:
# [1] = molecular target: Sigma non-opioid intracellular receptor 1 (Homo sapiens, UniProt Q99720); assay: Binding affinity to sigma 1 receptor (unknown origin) assessed as inhibition constant by radioligand binding assay
# [2] = molecular target: Sigma intracellular receptor 2 (Homo sapiens, UniProt Q5BJF2); assay: Binding affinity to sigma 2 receptor (unknown origin) assessed as inhibition constant by radioligand binding assay
# Chain of Sigma intracellular receptor 2 (Q5BJF2 whole entry): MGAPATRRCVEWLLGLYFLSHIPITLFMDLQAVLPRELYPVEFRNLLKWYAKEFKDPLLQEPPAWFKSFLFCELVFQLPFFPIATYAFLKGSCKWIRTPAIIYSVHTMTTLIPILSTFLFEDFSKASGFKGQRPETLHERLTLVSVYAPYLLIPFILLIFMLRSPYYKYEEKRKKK
# Homo sapiens = species on record: Homo sapiens; assay: Selectivity index, ratio of Ki for sigma 1 receptor (unknown origin) to Ki for sigma 2 receptor (unknown origin)
# Mu-type opioid receptor = Mu-type opioid receptor (Homo sapiens, UniProt P35372); assay: Binding affinity to MOR (unknown origin) assessed as inhibition constant by radioligand binding assay
# Chain of Mu-type opioid receptor (P35372 whole entry): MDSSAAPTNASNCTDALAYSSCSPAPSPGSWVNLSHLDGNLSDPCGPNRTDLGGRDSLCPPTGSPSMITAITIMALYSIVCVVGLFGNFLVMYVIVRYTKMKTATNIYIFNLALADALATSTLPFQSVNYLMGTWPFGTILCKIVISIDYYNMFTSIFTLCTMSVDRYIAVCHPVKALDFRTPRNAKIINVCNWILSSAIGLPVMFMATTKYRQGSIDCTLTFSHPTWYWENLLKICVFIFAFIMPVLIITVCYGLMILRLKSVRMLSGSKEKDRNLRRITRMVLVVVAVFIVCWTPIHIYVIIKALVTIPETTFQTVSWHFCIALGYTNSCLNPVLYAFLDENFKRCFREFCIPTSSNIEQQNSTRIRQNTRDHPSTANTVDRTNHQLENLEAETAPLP
# [3] = molecular target: Delta-type opioid receptor (Homo sapiens, UniProt P41143); assay: Binding affinity to DOR (unknown origin) assessed as inhibition constant by radioligand binding assay
# Chain of Delta-type opioid receptor (P41143 whole entry): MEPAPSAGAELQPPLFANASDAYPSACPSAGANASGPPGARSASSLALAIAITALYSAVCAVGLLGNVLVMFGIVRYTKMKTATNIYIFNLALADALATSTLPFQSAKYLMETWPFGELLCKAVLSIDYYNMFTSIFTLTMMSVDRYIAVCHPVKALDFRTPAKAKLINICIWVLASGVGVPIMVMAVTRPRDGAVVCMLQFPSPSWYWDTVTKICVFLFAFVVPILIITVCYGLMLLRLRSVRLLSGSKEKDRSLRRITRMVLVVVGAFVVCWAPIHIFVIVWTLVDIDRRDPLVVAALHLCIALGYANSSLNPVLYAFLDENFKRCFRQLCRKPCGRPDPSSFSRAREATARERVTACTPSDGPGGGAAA
# [4] = molecular target: Kappa-type opioid receptor (Homo sapiens, UniProt P41145); assay: Binding affinity to KOR (unknown origin) assessed as inhibition constant by radioligand binding assay
# Chain of Kappa-type opioid receptor (P41145 whole entry): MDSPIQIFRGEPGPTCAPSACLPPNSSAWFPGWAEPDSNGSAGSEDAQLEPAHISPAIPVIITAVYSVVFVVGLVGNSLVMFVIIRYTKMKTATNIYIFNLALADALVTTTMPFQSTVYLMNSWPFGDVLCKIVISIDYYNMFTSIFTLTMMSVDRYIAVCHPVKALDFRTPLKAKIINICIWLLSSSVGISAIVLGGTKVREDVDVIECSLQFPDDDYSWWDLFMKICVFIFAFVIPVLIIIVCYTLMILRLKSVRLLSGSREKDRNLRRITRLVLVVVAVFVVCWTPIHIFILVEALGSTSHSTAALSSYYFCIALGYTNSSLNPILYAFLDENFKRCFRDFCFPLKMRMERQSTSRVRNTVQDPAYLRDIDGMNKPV
# SK-BR-3 [5] = assay: Cytotoxicity against ER/PR-negative HER2-positive human SK-BR-3 cells harbouring […] assessed as inhibition of cell growth incubated for 48 hrs by resazurin dye based assay; assay type: functional; conditions: SK-BR-3, 48 h
# MCF7 [6] = assay: Cytotoxicity against ER/PR-positive HER2-negative human MCF7 cells harbouring […] assessed as inhibition of cell growth incubated for 48 hrs by resazurin dye based assay; assay type: functional; conditions: MCF7, 48 h
# SK-BR-3 [7] = assay: Cytotoxicity against ER/PR-negative HER2-positive human SK-BR-3 cells harbouring […] assessed as reduction in cell viability at 100 to 200 uM incubated for 48 hrs by resazurin dye based assay relative to control; assay type: functional; conditions: dose 100-200 µM
# MCF7 [8] = assay: Cytotoxicity against ER/PR-positive HER2-negative human MCF7 cells harbouring […] assessed as reduction in cell viability at 100 uM incubated for 48 hrs by resazurin dye based assay relative to control; assay type: functional
# Chain of Sigma non-opioid intracellular receptor 1 (Q99720 whole entry): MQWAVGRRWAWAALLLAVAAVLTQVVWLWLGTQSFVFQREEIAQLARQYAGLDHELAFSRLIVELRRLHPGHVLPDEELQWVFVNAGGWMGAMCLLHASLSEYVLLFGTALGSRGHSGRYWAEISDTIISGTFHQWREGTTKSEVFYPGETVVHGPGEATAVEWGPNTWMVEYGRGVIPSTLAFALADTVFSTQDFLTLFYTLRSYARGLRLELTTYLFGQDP
Compound,Ki [1] [µM],Ki [2] [µM],Ratio Ki (Homo sapiens),Ki (Mu-type opioid receptor) [µM],Ki [3] [µM],Ki [4] [µM],IC50 (SK-BR-3 [5]) [µM],IC50 (MCF7 [6]; read-out: IC50) [µM],Activity (SK-BR-3 [7]),Activity (MCF7 [8]),IC50 (MCF7 [6]) [µM]
CN(CCCNC(=O)c1ccco1)Cc1ccccc1,> 10,1.07,–,> 10,> 10,> 10,–,–,–,–,–
Fc1ccc(-n2cc(CCCCN3CCC4(CC3)OCc3ccccc34)c3ccccc32)cc1 [SIRAMESINE],–,–,–,–,–,–,14,13,98%,96%,–
CN(CCCNC(=O)c1ccc2ccccc2n1)Cc1ccccc1,0.016,0.021,0.7,2.76,> 10,3.58,169,1640,50%,30%,–
CN(CCCNC(=O)c1ccc2ccccc2c1)Cc1ccccc1,0.104,0.106,1,3.43,> 10,> 10,–,–,–,–,–
O=C(CCCN1CCC(O)(c2ccc(Cl)cc2)CC1)c1ccc(F)cc1 [HALOPERIDOL],–,–,–,–,–,–,131,–,48%,79%,68

# More lines, main results first:
Ki [1] [µM],Ki [2] [µM],Ratio Ki (Homo sapiens),Ki (Mu-type opioid receptor) [µM],Ki [3] [µM],Ki [4] [µM],Compound,IC50 (SK-BR-3 [5]) [µM],IC50 (MCF7 [6]; read-out: IC50) [µM],Activity (SK-BR-3 [7]),Activity (MCF7 [8]),IC50 (MCF7 [6]) [µM]
1.44,0.126,11,1.22,> 10,> 10,COc1ccc(CN(C)CCCNC(=O)c2ccc3ccccc3c2)cc1OC,–,–,–,–,–
0.375,0.046,8.1,2.9,> 10,> 10,COc1ccc(CN(C)CCCNC(=O)c2cc3ccccc3o2)cc1OC,35,36,<=60%,<=60%,–
0.012,0.0099,1.2,1.77,> 10,2.39,CN(CCCNC(=O)c1cc2ccccc2o1)Cc1ccccc1,52,86,50%,<=50%,–
> 10,> 5,–,> 10,> 10,4.17,COc1ccc(CN(C)CCCNC(=O)c2ccco2)cc1OC,–,–,–,–,–
0.573,0.016,35,0.056,> 10,> 10,COc1ccc(CN(C)CCCNC(=O)c2ccc3ccccc3n2)cc1OC,88,251,<=60%,<=50%,–
